Consider one compound from patent US9415053B2, “Solid, orally administrable pharmaceutical composition” (Bayer Intellectual Property GmbH, priority 2003, dated 2016).

The nature of this series: Solubility of active compound (I). The series is classed as physicochemical. How it is done:
The active compound (I) has a relatively poor water solubility (about 7 mg/l). As a result of this, difficulties with the oral bioavailability and an increased biological variability of the absorption rate can result.
An alternative process is the amorphization of the active compound. […] Amorphization of the active compound by means of the fusion method is also disadvantageous because of the high melting point of the active compound (about 230° C.), since an undesirably high proportion of breakdown components is formed during the preparation.

Values after ≈ are worked out from the molar mass of the structure shown.

With `O=C(NC[C@H]1CN(c2ccc(N3CCOCC3=O)cc2)C(=O)O1)c1ccc(Cl)s1` [active compound (I), 5-chloro-N-({(5S)-2-oxo-3-[4-(3-oxo-4-morpholinyl)-phenyl]-1,3-oxazolidin-5-yl}-methyl)-2-thiophenecarboxamide], for the setting “solvents such as ethanol or acetone”, the “solubility in pharmaceutically acceptable solvents” value is “poorly soluble”. Further, the solubility (water) is around 7 µg/mL (≈ 16.1 µM).

Broadly, the solubility is the dissolved amount per volume that the medium holds.
